How the values were obtained:
[1] = tested on: heart muscle cells; settings: by activating Akt; cited from earlier work
[2] = tested on: heart muscle cells of rat newborns; assay: Inhibition of serum-removal-induced apoptosis of heart muscle cells, present detection method (serum re-added, about 17 h) with MTT; format: cell-based; settings: 1000 U/ml hLIF, 4 days serum-free, then 10% serum about 17 h, MTT as coloration substrate
Method: (§1) The heart muscle cells obtained by the method of the invention are adjusted to a cell density of 3×10^4 cells/well (96-wells plate) and cultured in serum-free medium such as Medium 199 in a CO2 incubator set at 5% CO2, 37° C. for 4 days, thus inducing apoptosis to reduce the survival rate of the heart muscle cells to 50% or less.
(§2) Serum such as FCS is added at a final concentration of 10% to the culture, which is then cultured for about 17 hours and measured for its dehydrogenase activity (reduction activity) with MTT or WST-8 as the coloration substrate, to determine the number of viable cells.
Using the heart muscle cells of rat newborns obtained by the present method of preparing heart muscle cells as described in Example 1, their apoptosis was induced by removing serum from the culture, and the inhibitory action of recombinant human leukemia inhibitory factor (hLIF, produced by Peprotech) on the apoptosis was detected by the conventional method with MTT as the coloration substrate and by the present method of detecting apoptosis with WST-8 or MTT as the coloration substrate, and the sensitivity of the two methods was compared. […]

[3] = tested on: heart muscle cells of rat newborns; assay: Inhibition of serum-removal-induced apoptosis of heart muscle cells, conventional MTT reduction method (no serum re-addition); format: cell-based; settings: 1000 U/ml hLIF, 4 days serum-free, MTT as coloration substrate
Text: (§3) Using the heart muscle cells of rat newborns obtained by the present method of preparing heart muscle cells as described in Example 1, their apoptosis was induced by removing serum from the culture, and the inhibitory action of recombinant human leukemia inhibitory factor (hLIF, produced by Peprotech) on the apoptosis was detected by the conventional method with MTT as the coloration substrate and by the present method of detecting apoptosis with WST-8 or MTT as the coloration substrate, and the sensitivity of the two methods was compared.
First, the muscle cells obtained in the method of preparing heart muscle cells according to the invention were suspended at a density of 3×10^5 cells/ml in Medium 199 containing 10% fetal calf serum, put onto a 96-wells plate in a volume of 0.1 ml/well, and then cultured for 1 day in a CO2 incubator set at 5% CO2, 37° C. […] In the conventional method, the number of viable cells in the culture was measured directly with MTT as the coloration substrate. In the method of the invention, on the other hand, fetal calf serum was added thereto at a concentration of 10%, and the cells were further cultured for about 17 hours in a CO2 incubator set at 5% CO2, 37° C., and the number of viable cells was determined by using WST-8 or MTT as the coloration substrate.

[4] = tested on: heart muscle cells of rat newborns; assay: Inhibition of serum-removal-induced apoptosis of heart muscle cells, present detection method (serum re-added, about 17 h) with WST-8; format: cell-based; settings: 1000 U/ml hLIF
Method: as §1, §2, §3
First, the muscle cells obtained in the method of preparing heart muscle cells according to the invention were suspended at a density of 3×10^5 cells/ml in Medium 199 containing 10% fetal calf serum, put onto a 96-wells plate in a volume of 0.1 ml/well, and then cultured for 1 day in a CO2 incubator set at 5% CO2, 37° C. The plate was stirred with a micromixer (Taiyo Kagaku Kogyo Co., Ltd.) and the medium was exchanged 3 times with serum-free Medium 199, followed by adding 0 to 1000 U/ml hLIF. The culture was incubated for additional 4 days to induce apoptosis. In the conventional method, the number of viable cells in the culture was measured directly with MTT as the coloration substrate. In the method of the invention, on the other hand, fetal calf serum was added thereto at a concentration of 10%, and the cells were further cultured for about 17 hours in a CO2 incubator set at 5% CO2, 37° C., and the number of viable cells was determined by using WST-8 or MTT as the coloration substrate. […]
First, the heart muscle cells obtained in the method described in Example 1 were suspended at a density of 3×10^5 cells/ml in Medium 199 containing 10% fetal bovine serum, and put in a volume of 0.1 ml/well onto each well of 2nd to 11th rows on each of three 96-wells plates. […] The cells were cultured for 4 days to induce apoptosis, and fetal calf serum was added at a concentration of 10%, and the cells were cultured for additional 17 hours in a CO2 incubator set at 5% CO2, 37° C., and then the number of viable cells was counted with WST-8 as the coloration substrate.

Row | Substance | effect on apoptosis of heart muscle cells [1] | increase in absorbance relative to control group [2] | increase in the average absorbance as compared with the control group [3] | increase in average absorbance relative to control group ([4]; 4 days serum-free, then 10% serum about 17 h, WST-8 as coloration substrate) | average absorbance (number of viable cells) ([4]; plate 1, WST-8, control 0.22±0.039) | average absorbance (number of viable cells) ([4]; plate 2, WST-8, control 0.15±0.028) | average absorbance (number of viable cells) ([4]; plate 3, WST-8, control 0.13±0.020)
1 | hIGF-1: recombinant human IGF-1 (hIGF-1, produced by Peprotech) | inhibit apoptosis of heart muscle cells | – | – | – | – | – | –
2 | hLIF: recombinant human leukemia inhibitory factor (hLIF, produced by Peprotech) | – | ~0.1 | ≤ 0.03 | ≥ 0.3 | 0.54±0.055 | 0.45±0.035 | 0.43±0.059

Source: patent US20080160553A1, “Method of preparing heart muscle cells and method of searching for remedy for heart diseases” (Takeda Pharmaceutical Company Limited, priority 2000, published 2008)
